In ChEMBL document CHEMBL4673346, “Discovery of a benzimidazole series as the first highly potent and selective ACSL1 inhibitors” (Bioorg Med Chem Lett, 2021):
Values after ≈ are worked out from the molar mass of the structure shown.

Key:
[1] = Cmax in rat at 1 mg/kg, po; format: ADME, organism-based; set-up: route oral, dose 1 mg/kg; details: in vivo
[2] = Solubility of compound in pH 6.8 with TCA; format: physicochemical
[3] = Tmax in rat at 1 mg/kg, po; format: ADME, organism-based; details: in vivo
[4] = Solubility of compound in pH 6.8; format: physicochemical; details: buffer
[5] = Volume of distribution at steady state in rat at 0.5 mg/kg, iv; format: ADME, organism-based; details: in vivo, read-out: Vdss
[6] = Half life in rat at 0.5 mg/kg, iv; format: ADME, organism-based; details: in vivo
[7] = target: Long-chain-fatty-acid--CoA ligase 4 (Homo sapiens, UniProt O60488); experiment: Inhibition of recombinant human ACSL4 assessed as reduction in […] prodution incubated for 120 mins in presence of Coenzyme A, ATP and MgCl2 by MALDI-TOF MS analysis
[8] = Oral bioavailability in rat at 1 mg/kg; format: ADME, organism-based; details: in vivo
[9] = target: Cytochrome P450 2C19 (Homo sapiens, UniProt P33261); experiment: Inhibition of CYP2C19 (unknown origin); format: ADME
[10] = target: T1, Long-chain-fatty-acid--CoA ligase 1 (Homo sapiens, UniProt P33121); experiment: Inhibition of recombinant human ACSL1 assessed as reduction in […] prodution incubated for 90 mins in presence of Coenzyme A, ATP and MgCl2 by MALDI-TOF MS analysis
T1 sequence (P33121 whole entry): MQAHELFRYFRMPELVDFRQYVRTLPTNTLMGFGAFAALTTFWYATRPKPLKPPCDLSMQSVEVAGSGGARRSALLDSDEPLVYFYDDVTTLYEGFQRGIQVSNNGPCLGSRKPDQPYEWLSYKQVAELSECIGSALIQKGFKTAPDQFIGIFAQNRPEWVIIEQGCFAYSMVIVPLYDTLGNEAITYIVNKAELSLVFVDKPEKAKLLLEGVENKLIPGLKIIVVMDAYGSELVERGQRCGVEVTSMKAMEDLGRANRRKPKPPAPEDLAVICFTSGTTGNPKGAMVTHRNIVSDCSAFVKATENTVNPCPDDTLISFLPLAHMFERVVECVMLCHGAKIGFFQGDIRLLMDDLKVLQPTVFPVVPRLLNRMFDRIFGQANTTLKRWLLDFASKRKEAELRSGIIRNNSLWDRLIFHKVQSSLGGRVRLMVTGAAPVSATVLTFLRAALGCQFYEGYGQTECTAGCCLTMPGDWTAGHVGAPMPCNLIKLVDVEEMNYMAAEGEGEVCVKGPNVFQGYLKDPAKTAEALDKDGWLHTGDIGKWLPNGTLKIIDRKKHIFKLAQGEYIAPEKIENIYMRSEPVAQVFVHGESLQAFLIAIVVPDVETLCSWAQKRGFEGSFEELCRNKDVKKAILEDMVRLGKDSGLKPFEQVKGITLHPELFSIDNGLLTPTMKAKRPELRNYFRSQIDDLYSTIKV

[11] = target: Fatty acid CoA ligase Acsl3 (Homo sapiens, UniProt O95573); experiment: Inhibition of recombinant human ACSL3 assessed as reduction in […] prodution incubated for 90 mins in presence of Coenzyme A, ATP and MgCl2 by MALDI-TOF MS analysis
[12] = target: Cytochrome P450 2C9 (Homo sapiens, UniProt P11712); experiment: Inhibition of CYP2C9 (unknown origin); format: ADME
[13] = target: Cytochrome P450 3A4 (Homo sapiens, UniProt P08684); experiment: Inhibition of CYP3A4 (unknown origin); format: ADME
[14] = system: Mus musculus; experiment: In vivo inhibition of ACSL1 in mouse assessed as reduction in acyl-coA production in liver administered orally using palmitoleic acid as substrate and measured after 17 hrs; format: functional, organism-based; details: dose 0.3-1 mg/kg
[15] = Inhibition of insulin/isobutyl-1-methylxanthin/dexamethasone-induced adipocytes differentiation in mouse 3T3-L1 cells by measuring 14C-triglyceride levels incubated for 1 hrs followed by oleic acid addition and measured after 10 mins by microbeta scintillation counting method; format: functional; details: 3T3-L1, 1.167 h, time 70 min
[16] = Metabolic stability in mouse liver microsomes assessed as compound remaining after 30 mins; format: ADME, Microsome; details: read-out: Stabilty
[17] = Total clearance in rat at 0.5 mg/kg, iv; format: ADME, organism-based; details: in vivo
[18] = AUC in rat at 0.5 mg/kg, iv; format: ADME, organism-based; set-up: dose 0.5 mg/kg; details: in vivo
[19] = Solubility of compound in pH 1.2; format: physicochemical; details: buffer
[20] = target: T2, Long-chain-fatty-acid--CoA ligase 1 (Mus musculus, UniProt P41216); experiment: Inhibition of recombinant mouse ACSL1 assessed as reduction in […] prodution incubated for 90 mins in presence of Coenzyme A, ATP and MgCl2 by MALDI-TOF MS analysis
T2 sequence (P41216 whole entry): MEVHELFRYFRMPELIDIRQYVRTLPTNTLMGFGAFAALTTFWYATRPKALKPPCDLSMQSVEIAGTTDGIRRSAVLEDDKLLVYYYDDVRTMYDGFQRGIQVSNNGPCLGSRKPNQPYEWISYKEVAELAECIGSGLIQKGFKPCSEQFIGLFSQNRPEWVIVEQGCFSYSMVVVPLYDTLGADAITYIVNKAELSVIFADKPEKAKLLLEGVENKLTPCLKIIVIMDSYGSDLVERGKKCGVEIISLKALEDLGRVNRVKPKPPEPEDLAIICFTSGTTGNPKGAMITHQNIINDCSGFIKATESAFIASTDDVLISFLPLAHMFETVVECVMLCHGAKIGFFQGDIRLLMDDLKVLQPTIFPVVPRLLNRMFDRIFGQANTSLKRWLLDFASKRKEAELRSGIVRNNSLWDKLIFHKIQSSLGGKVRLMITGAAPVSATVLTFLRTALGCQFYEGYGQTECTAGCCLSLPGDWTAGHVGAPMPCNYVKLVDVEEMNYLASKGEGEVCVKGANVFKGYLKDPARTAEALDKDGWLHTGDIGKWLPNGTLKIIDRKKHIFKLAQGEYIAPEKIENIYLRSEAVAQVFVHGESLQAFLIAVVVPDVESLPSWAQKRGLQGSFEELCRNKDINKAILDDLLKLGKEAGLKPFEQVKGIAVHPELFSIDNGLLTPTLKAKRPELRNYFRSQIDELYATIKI

[21] = Metabolic stability in human liver microsomes assessed as compound remaining after 30 mins; format: ADME, Microsome; details: read-out: Stabilty
[22] = target: Cytochrome P450 2D6 (Homo sapiens, UniProt P10635); experiment: Inhibition of CYP2D6 (unknown origin); format: ADME
[23] = system: Mus musculus; experiment: In vivo inhibition of ACSL1 in mouse assessed as reduction in acyl-coA production in liver administered orally using palmitic acid as substrate and measured after 17 hrs; format: functional, organism-based; details: dose 0.3-1 mg/kg

Sequence of Cytochrome P450 2C19 (P33261 whole entry): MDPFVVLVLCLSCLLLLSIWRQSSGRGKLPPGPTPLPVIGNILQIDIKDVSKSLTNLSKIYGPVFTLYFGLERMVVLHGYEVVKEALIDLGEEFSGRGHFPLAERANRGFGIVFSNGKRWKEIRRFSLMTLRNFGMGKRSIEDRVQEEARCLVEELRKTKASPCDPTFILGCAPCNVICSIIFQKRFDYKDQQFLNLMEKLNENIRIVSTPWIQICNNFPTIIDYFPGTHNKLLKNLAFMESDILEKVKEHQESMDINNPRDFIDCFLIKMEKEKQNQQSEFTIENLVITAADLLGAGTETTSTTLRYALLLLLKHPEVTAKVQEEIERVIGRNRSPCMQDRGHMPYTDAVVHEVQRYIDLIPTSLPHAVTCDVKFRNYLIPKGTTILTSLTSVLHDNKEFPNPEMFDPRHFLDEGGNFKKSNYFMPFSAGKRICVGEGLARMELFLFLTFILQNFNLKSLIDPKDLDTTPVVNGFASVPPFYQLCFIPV
Sequence of Cytochrome P450 2C9 (P11712 whole entry): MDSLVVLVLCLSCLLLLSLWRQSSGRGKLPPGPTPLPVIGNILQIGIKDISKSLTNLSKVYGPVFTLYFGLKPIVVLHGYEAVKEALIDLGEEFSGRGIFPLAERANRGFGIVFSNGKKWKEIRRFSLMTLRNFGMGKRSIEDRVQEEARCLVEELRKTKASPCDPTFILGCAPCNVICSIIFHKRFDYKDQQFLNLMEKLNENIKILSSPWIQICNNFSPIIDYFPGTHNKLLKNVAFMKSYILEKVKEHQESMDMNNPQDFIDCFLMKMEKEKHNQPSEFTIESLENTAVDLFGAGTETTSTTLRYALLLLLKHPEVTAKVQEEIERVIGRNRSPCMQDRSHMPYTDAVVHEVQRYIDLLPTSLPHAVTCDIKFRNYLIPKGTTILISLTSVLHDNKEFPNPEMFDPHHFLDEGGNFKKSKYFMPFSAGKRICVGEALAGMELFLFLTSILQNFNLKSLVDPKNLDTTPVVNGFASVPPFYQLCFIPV
Sequence of Cytochrome P450 2D6 (P10635 whole entry): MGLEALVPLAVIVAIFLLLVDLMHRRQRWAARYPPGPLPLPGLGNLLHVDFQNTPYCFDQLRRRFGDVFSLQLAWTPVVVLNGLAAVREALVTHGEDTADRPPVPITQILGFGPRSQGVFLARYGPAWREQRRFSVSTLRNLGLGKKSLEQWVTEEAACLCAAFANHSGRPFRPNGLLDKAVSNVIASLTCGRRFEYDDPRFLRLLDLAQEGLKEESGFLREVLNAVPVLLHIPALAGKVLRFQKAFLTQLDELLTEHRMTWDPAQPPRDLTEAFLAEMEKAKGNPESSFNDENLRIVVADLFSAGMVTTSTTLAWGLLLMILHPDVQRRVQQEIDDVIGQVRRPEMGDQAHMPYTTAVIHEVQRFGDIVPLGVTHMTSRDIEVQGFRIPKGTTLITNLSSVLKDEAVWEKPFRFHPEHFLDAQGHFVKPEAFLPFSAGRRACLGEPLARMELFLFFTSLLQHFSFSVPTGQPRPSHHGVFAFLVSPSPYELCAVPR
Sequence of Fatty acid CoA ligase Acsl3 (O95573 whole entry): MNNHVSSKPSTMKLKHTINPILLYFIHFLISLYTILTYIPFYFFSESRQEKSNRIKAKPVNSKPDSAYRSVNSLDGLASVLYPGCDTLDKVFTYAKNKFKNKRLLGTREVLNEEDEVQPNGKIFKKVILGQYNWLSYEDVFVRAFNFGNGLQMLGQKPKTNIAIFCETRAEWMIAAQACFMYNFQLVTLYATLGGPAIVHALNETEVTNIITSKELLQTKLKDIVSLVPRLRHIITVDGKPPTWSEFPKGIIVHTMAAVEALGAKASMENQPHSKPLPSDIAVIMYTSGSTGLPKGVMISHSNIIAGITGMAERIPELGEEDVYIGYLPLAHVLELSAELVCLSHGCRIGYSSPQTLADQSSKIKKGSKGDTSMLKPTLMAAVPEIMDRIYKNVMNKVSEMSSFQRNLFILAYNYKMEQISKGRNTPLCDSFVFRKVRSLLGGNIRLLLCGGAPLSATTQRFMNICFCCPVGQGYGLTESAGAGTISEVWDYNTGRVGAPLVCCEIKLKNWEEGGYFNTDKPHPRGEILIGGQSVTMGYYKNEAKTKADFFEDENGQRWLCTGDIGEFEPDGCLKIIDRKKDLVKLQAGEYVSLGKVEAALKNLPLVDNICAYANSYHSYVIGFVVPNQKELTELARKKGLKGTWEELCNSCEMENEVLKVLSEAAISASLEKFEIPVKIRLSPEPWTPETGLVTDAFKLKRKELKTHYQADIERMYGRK
Sequence of Long-chain-fatty-acid--CoA ligase 4 (O60488 whole entry): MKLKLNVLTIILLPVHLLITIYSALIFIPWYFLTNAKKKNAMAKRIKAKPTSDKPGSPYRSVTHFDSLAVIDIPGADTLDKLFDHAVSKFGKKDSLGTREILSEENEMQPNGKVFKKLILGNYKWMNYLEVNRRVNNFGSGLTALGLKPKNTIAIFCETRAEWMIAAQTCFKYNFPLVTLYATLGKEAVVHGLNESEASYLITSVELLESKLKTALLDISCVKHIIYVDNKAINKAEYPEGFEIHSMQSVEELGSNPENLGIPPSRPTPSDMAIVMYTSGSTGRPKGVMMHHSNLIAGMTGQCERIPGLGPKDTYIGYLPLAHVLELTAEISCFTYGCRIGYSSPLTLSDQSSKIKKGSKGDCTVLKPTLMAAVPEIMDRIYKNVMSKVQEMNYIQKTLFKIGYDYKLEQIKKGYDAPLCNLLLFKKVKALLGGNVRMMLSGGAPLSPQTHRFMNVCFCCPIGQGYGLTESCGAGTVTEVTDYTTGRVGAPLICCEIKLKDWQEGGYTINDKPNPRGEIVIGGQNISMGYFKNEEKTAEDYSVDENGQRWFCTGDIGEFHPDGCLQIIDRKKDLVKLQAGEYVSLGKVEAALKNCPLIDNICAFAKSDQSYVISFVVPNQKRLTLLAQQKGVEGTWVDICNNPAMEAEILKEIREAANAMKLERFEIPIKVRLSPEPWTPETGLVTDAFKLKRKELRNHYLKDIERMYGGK
Sequence of Cytochrome P450 3A4 (P08684 whole entry): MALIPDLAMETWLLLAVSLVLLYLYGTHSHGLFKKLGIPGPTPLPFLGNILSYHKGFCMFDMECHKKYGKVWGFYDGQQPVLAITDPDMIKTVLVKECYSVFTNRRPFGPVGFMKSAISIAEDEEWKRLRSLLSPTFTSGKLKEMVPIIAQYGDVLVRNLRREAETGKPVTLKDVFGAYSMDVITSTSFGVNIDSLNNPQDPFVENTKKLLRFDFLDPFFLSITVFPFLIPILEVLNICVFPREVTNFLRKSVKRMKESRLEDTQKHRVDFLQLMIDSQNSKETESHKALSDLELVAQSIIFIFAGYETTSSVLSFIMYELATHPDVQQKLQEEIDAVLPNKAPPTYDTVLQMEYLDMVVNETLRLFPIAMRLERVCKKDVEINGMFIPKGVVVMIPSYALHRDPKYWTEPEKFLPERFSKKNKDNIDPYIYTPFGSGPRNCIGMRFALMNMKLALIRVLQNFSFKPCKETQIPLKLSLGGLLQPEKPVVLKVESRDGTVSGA

Cc1cccc(Cc2nc3cc(O[C@H]4CC[C@@H](C(=O)O)CC4)ccc3n2C)c1
Cmax [1]: 1110 ng/mL
solubility [2]: 24 µg/mL (≈ 63.4 µM)
Tmax [3]: 2.5 h
solubility [4]: 8.6 µg/mL (≈ 22.7 µM)
Vd [5]: 0.38 L/kg
half-life [6]: 2.8 h
IC50 [7]: > 200 µM
bioavailability [8]: 119%
IC50 [9]: > 20 µM
IC50 [10]: 0.042 µM
IC50 [11]: > 200 µM
IC50 [12]: > 20 µM
IC50 [13]: > 20 µM
inhibition [14]: Dose-dependent effect
IC30 [15]: 0.039 µM
remaining at 0.5 h [16]: 99%
clearance [17]: 1.75 mL/min/kg
AUC [18]: 4970 ng·h/mL
solubility [19]: 307 µg/mL (≈ 811 µM)
IC50 [20]: 0.03 µM
remaining at 0.5 h [21]: 96%
IC50 [22]: > 20 µM
inhibition [23]: Dose-dependent effect
